{"source": "patent US5942489A", "about": "“HGH-RH(1-29)NH2 analogues having antagonistic activity” (The Administrators of the Tulane Educational Fund, priority 1996, dated 1999)", "key": {"[1]": {"tested_on": "GH release", "conditions": "cited from earlier work"}, "[2]": {"tested_on": "GH release stimulated by hGH-RH(1-29)NH2", "assay": "In vivo inhibition of hGH-RH(1-29)NH2-stimulated serum GH in anesthetized rats", "design": "species or system Sprague-Dawley rats", "method": "In Vivo Tests. Adult male Sprague-Dawley rats are anesthetized with pentobarbital (6 mg/100 g b.w., i.p.). Blood samples are taken from the jugular vein 30 min after the injection of pentobarbital. One group of 7 animals receives hGH-RH(1-29)NH2 as control. […] Blood samples are taken from the jugular vein 5 and 15 min after the injection of antagonists. GH levels are measured by RIA. Potencies of the antagonists are calculated by the factorial analysis of Bliss and Marks with 95% confidence limits and are based on the doses of 100 and 400 μg/kg b.w. of the Standard antagonist and 20 and 80 μg/kg b.w. of the antagonists tested. Statistical significance was assessed by Duncan's new multiple range test."}, "[3]": {"tested_on": "SW-1990 human pancreatic cancers", "assay": "SW 1990 human pancreatic cancers in nude mice", "assay_type": "in vivo", "method": "Small piees of an SW-1990 rumor growing in a nude mouse were transplated s.c. into the right flanks of 60 nu/nu male nude mice. Ten days after transplantation, 40 mice with well growing tumors were groupled into 4 groups with equal average tumor volume (16 mm^3) in each group. Treatment started 13 days after transplantation and was continuted for 44 days. The tumors were measured and volume was calculated weekly. Tumor volume changes are shown in Table V. On day 45 of treatment the mice were sacraficed under Metofane anesthesia by exsanguination from abdominal aorta. Blood was collected, tumor and organ weights were determined."}, "[4]": {"conditions": "80 μg/kg i.v., 15 min prior to GH-RH(1-29)NH2 3 μg/kg"}}, "note": "Several values for one entry are separate records, joined by “and”; a condition that tells them apart may be missing. Equal values may be shown once."}
{"molecule": "[AcTyr^1 ]hGH-RH(1-29)NH2", "values": [{"measurement": "in vivo potency over that of GH-RH", "setting": "[1]", "value": "ten fold or more"}]}
{"molecule": "Ibu^0 --D--Arg^2 --Phe(pCl)^6 --Abu^16 --Nle^27 ] hGHRH (1-28) Agm [Peptide A]", "values": [{"measurement": "Inhibition %", "setting": "[2]; [4]", "value": 43, "unit": "%"}, {"measurement": "Serum GH Levels", "setting": "[2]; [4]", "value": "585.33 ± 89.34", "unit": "ng/mL"}, {"measurement": "Serum GH Levels", "setting": "[2]; 80 μg/kg i.v., 30 min prior to GH-RH(1-29)NH2 3 μg/kg", "value": "788.39 ± 96.93", "unit": "ng/mL"}, {"measurement": "effect on growth of SW-1990 cancers (volume and weight data)", "setting": "[3]; Peptide #8 at 10 μg/day", "value": "no significant effect on the tumors"}, {"measurement": "Final Tumor Volume mm^3", "setting": "[3]; dose 10, 44 days treatment", "value": "1183 ± 342", "unit": "mm^3"}, {"measurement": "Tumor weights", "setting": "[3]; dose 10, 44 days treatment", "value": "1467 ± 595", "unit": "mg"}, {"measurement": "Final Tumor Volume mm^3", "setting": "[3]; dose 40, 44 days treatment", "value": "902 ± 156", "unit": "mm^3"}, {"measurement": "Tumor weights", "setting": "[3]; dose 40, 44 days treatment", "value": "1297 ± 258", "unit": "mg"}]}
{"molecule": "CC[C@H](C)[C@H](NC(=O)[C@H](C)NC(=O)[C@H](CC(=O)O)NC(=O)[C@H](C)NC(=O)[C@@H](N)Cc1ccc(O)cc1)C(=O)N[C@@H](Cc1ccccc1)C(=O)N[C@H](C(=O)N[C@@H](CC(N)=O)C(=O)N[C@@H](CO)C(=O)N[C@@H](Cc1ccc(O)cc1)C(=O)N[C@@H](CCCNC(=N)N)C(=O)N[C@@H](CCCCN)C(=O)N[C@H](C(=O)N[C@@H](CC(C)C)C(=O)NCC(=O)N[C@@H](CCC(N)=O)C(=O)N[C@@H](CC(C)C)C(=O)N[C@@H](CO)C(=O)N[C@@H](C)C(=O)N[C@@H](CCCNC(=N)N)C(=O)N[C@@H](CCCCN)C(=O)N[C@@H](CC(C)C)C(=O)N[C@@H](CC(C)C)C(=O)N[C@@H](CCC(N)=O)C(=O)N[C@@H](CC(=O)O)C(=O)N[C@H](C(=O)N[C@@H](CCSC)C(=O)N[C@@H](CO)C(=O)N[C@@H](CCCNC(=N)N)C(N)=O)[C@@H](C)CC)C(C)C)[C@@H](C)O", "note": "[GH-RH (1-29) NH2, Tyr-Ala-Asp-Ala-Ile^5 -Phe-Thr-Asn-Ser-Tyr^10 -Arg-Lys-Val-Leu-Gly^15 -Gln-Leu-Ser-Ala-Arg^20 -Lys-Leu-Leu-Gln-Asp^25 -Ile-Met-Ser-Arg^29 -NH2]", "values": [{"measurement": "Serum GH Levels", "setting": "[2]; GH-RH(1-29)NH2 alone 3.0 μg/kg i.v. (stimulated control)", "value": "695.15 ± 95.40 ng/mL and 703.34 ± 90.01 ng/mL and 724.68 ± 93.01 ng/mL and 883.36 ± 148.34 ng/mL and 703.34 ± 93.01 ng/mL"}]}
